Measured values reported in patent publication US20170312301A1, “SKIN BARRIER FUNCTION-IMPROVING AGENT AND COMPOSITION FOR IMPROVING SKIN BARRIER FUNCTION” (SHOWA DENKO K.K., priority 2014, published 2017).

Key:
TRPV4 gene = assay: Promoting effect on TRPV4 gene expression (quantitative real-time PCR, standardized to GAPDH); type: cell-based, human; conditions: SVHK cells, 1 μM, 48 hours, purified water control = 1.00
Experimental: Human epidermal cells (SVHK cells) which were established from introduction of SV40 gene into human epidermal cells, were seeded on a plastic petri dish at a seeding density of 10,000 cells/cm^2 and cultured for 24 hours in Dulbecco's Modified Eagle's Medium (DMEM, manufactured by Sigma-Aldrich Co. LLC.) containing 10% fetal bovine serum. Next, to the medium of SVHK cells, an inositol derivative (composition thereof will be described below) dissolved in purified water was added to the final concentration of 1 μM, and culturing was further performed for 48 hours. As for a control, in place of 1 μM inositol derivative, the same amount of purified water was added to SVHK cells, and the cells were cultured in the same manner as above. […] The inositol derivative used was analyzed by using liquid chromatography-mass spectrometry (LC-MS), and the results are as follows. […] Next, quantitative real-time PCR was performed using this cDNA as a template, and the expression levels of TRPV4 gene in SVHK cells of each group were quantified. In addition, the expression level of glyceraldehyde-3-phosphate dehydrogenase (GAPDH) which is a housekeeping gene in which variation is not observed in the expression by adding a compound, as an internal standard gene, was quantified, and based on the expression levels of GAPDH gene in SVHK cells of each group, the expression levels of TRPV4 gene were standardized. […]

claudin-1 (CLDN1) gene = assay: Promoting effect on TJ-related gene expression: claudin-1 (CLDN1) gene (quantitative real-time PCR, standardized to GAPDH); type: cell-based, human; conditions: SVHK cells, 1 μM, 48 hours, purified water control = 1.00
Experimental: (§1) Human epidermal cells (SVHK cells) which were established from introduction of SV40 gene into human epidermal cells, were seeded on a plastic petri dish at a seeding density of 10,000 cells/cm^2 and cultured for 24 hours in Dulbecco's Modified Eagle's Medium (DMEM, manufactured by Sigma-Aldrich Co. LLC.) containing 10% fetal bovine serum. Next, to the medium of SVHK cells, 1 μM inositol derivative (composition thereof will be described below) dissolved in purified water was added to the final concentration of 1 μM, and culturing was further performed for 48 hours. […] The inositol derivative used was analyzed by using liquid chromatography-mass spectrometry (LC-MS), and the results are as follows. […] Next, quantitative real-time PCR was performed using this cDNA as a template, and the expression levels of claudin-1 (CLDN1) gene and occludin (OCL) gene in SVHK cells of each group were quantified. In addition, the expression level of glyceraldehyde-3-phosphate dehydrogenase (GAPDH) which is a housekeeping gene in which variation is not observed in the expression by adding a compound, as an internal standard gene, was quantified, and based on the expression levels of GAPDH gene in SVHK cells of each group, the expression levels of CLDN1 gene and OCL gene were standardized. […]

[1] = test system: Skin Model (type EP1-200); assay: Test for evaluating TJ-forming ability: transepidermal water loss (TEWL) of Skin Model; type: cell-based; conditions: 1 w/v % on surface of Skin Model, 24 hours
Experimental: Skin Model (type “EP1-200” manufactured by KURABO INDUSTRIES LTD.) was cultured before 24 hours at 37° C. under 5% CO2. Next, an inositol derivative (composition thereof will be described below) dissolved in purified water in each concentration of 0.1, 0.5, and 1 w/v % was added to the surface of Skin Model, and culturing was further performed for 24 hours. Next, the inositol derivative was removed, Skin Model was washed three times with a phosphate buffer solution, and transepidermal water loss (TEWL) thereof was measured. For the measurement of TEWL, a cyclone-type moisture-transpiration meter (manufactured by […]) was used. The inositol derivative used was analyzed by using liquid chromatography-mass spectrometry (LC-MS), and the results are as follows. […] As for a control, prepared were a group added with nothing in place of the inositol derivative and a group added with the same amount of purified water in place of the inositol derivative, and TEWL was measured in the same manner as above. In addition, for comparison, prepared was a group in which myo-inositol dissolved in purified water in a concentration of 1 w/v % was added in place of the inositol derivative, and TEWL was measured in the same manner as above.

occludin (OCL) gene = assay: Promoting effect on TJ-related gene expression: occludin (OCL) gene (quantitative real-time PCR, standardized to GAPDH); type: cell-based, human; conditions: SVHK cells, 1 μM, 48 hours, purified water control = 1.00
Experimental: as §1

occludin = assay: Test for evaluating TJ-forming ability: occludin immunostaining fluorescence intensity in Skin Model slices; type: cell-based; conditions: 1 w/v %, relative to non-applied group

SMILES: O[C@H]1[C@H](O)[C@@H](O)[C@H](O)[C@@H](O)[C@H]1O [Myo-inositol, myo-inositol]
- Expression levels of TRPV4 gene (relative value) (TRPV4 gene): 0.84 relative value
- Expression levels of gene (relative value) CLDN1 (claudin-1 (CLDN1) gene): 1.57 relative value
- TEWL [1]: 30.7 ± 2.9 g/(h · m^2)
- Expression levels of gene (relative value) OCL (occludin (OCL) gene): 0.94 relative value
- Fluorescence intensity (relative value) (occludin): 3.32 relative value
